From PubChem BioAssay AID330 (DTP/NCI, 2004)
“And” between values parts separate entries of the source, which are not always exact repeats. Identical values can stand only once. Inconclusive results and toxic doses are left out.

System: P388 leukemia ip, CD2F1 mice, survival T/C
Assay: NCI In Vivo Anticancer Drug Screen. Data for tumor model P388 Leukemia (intraperitoneal) in CD2F1 (CDF1) mice
Settings: endpoint: median survival time, higher = longer survival
How it was run: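 Mice carrying the transplanted tumor received test compound or vehicle. Survival was recorded in each group, and the value is the treated-group measurement divided by that of the vehicle-treated control group.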

[1] = dose: 50.0 mg/kg/injection, schedule: Q01DX005 (ip), vehicle: saline with Tween-80
[2] = dose: 100.0 mg/kg/injection, schedule: Q01DX005 (ip), vehicle: saline with Tween-80
[3] = dose: 60.0 mg/kg/injection, schedule: Q01DX005 (ip), vehicle: Klucel (hydroxypropylcellulose) (HPC)
[4] = dose: 120.0 mg/kg/injection, schedule: Q01DX005 (ip), vehicle: Klucel (hydroxypropylcellulose) (HPC)
[5] = dose: 240.0 mg/kg/injection, schedule: Q01DX005 (ip), vehicle: Klucel (hydroxypropylcellulose) (HPC)
[6] = dose: 100.0 mg/kg/injection, schedule: Q04DX002 (ip), vehicle: saline with Tween-80
[7] = dose: 200.0 mg/kg/injection, schedule: Q04DX002 (ip), vehicle: saline with Tween-80
[8] = dose: 400.0 mg/kg/injection, schedule: Q04DX002 (ip), vehicle: saline with Tween-80

For `CCCCC(=O)OCC(=O)[C@]1(O)Cc2c(O)c3c(c(O)c2[C@@H](OC2CC(NC(=O)C(F)(F)F)C(O)C(C)O2)C1)C(=O)c1c(OC)cccc1C3=O` (some centres undefined), the T/C (dose: 0.5 mg/kg/injection, schedule: Q04DX003 (ip), vehicle: saline with Tween-80) was 98 % of control, the T/C (dose: 1.0 mg/kg/injection, schedule: Q04DX003 (ip), vehicle: saline with Tween-80) was 104 % of control and the T/C (dose: 1.4 mg/kg/injection, schedule: Q01DX009 (ip), vehicle: clinical formulation) was 124 % of control. For the same molecule, the T/C (dose: 2.0 mg/kg/injection, schedule: Q04DX003 (ip), vehicle: saline with Tween-80) was 99 % of control and 101 % of control, the T/C (dose: 4.0 mg/kg/injection, schedule: Q04DX003 (ip), vehicle: saline with Tween-80) was 100 % of control and 101 % of control and 105 % of control and the T/C (dose: 6.48 mg/kg/injection, schedule: Q01DX009 (ip), vehicle: clinical formulation) was 162 % of control. For the same molecule, the T/C (dose: 8.0 mg/kg/injection, schedule: Q04DX003 (ip), vehicle: saline with Tween-80) was 114 % of control and 121 % of control and 97 % of control, the T/C (dose: 9.38 mg/kg/injection, schedule: Q04DX003 (ip), vehicle: clinical formulation) was 111 % of control and the T/C (dose: 10.8 mg/kg/injection, schedule: Q01DX009 (ip), vehicle: clinical formulation) was 189 % of control and 193 % of control. For the same molecule, the T/C (dose: 13.0 mg/kg/injection, schedule: Q04DX003 (ip), vehicle: clinical formulation) was 124 % of control, the T/C (dose: 16.0 mg/kg/injection, schedule: Q04DX003 (ip), vehicle: saline with Tween-80) was 121 % of control and the T/C (dose: 18.0 mg/kg/injection, schedule: Q01DX009 (ip), vehicle: clinical formulation) was 224 % of control and 232 % of control. For the same molecule, the T/C (dose: 18.75 mg/kg/injection, schedule: Q04DX003 (ip), vehicle: clinical formulation) was 118 % of control, the T/C (dose: 30.0 mg/kg/injection, schedule: Q01DX004 (ip), vehicle: distilled water + Tween-80) was 196 % of control and 333 % of control and the T/C (dose: 30.0 mg/kg/injection, schedule: Q01DX009 (ip), vehicle: clinical formulation) was 303 % of control and 560 % of control. For the same molecule, the T/C (dose: 32.4 mg/kg/injection, schedule: Q04DX003 (ip), vehicle: clinical formulation) was 156 % of control, the T/C (dose: 36.0 mg/kg/injection, schedule: Q04DX003 (ip), vehicle: clinical formulation) was 163 % of control and the T/C (dose: 37.5 mg/kg/injection, schedule: Q04DX003 (ip), vehicle: clinical formulation) was 123 % of control. The T/C (dose: 37.5 mg/kg/injection, schedule: Q04DX003 (ip), vehicle: saline with Tween-80) was 156 % of control, the T/C (dose: 37.5 mg/kg/injection, schedule: Q04DX003 (iv), vehicle: saline with Tween-80) was 120 % of control and the T/C (dose: 40.0 mg/kg/injection, schedule: Q01DX004 (ip), vehicle: distilled water + Tween-80) was 171 % of control. The T/C (dose: 50.0 mg/kg/injection, schedule: Q01DX004 (ip), vehicle: distilled water + Tween-80) was 91 % of control, the T/C (dose: 50.0 mg/kg/injection, schedule: Q01DX009 (ip), vehicle: clinical formulation) was 110 % of control and the T/C (dose: 54.0 mg/kg/injection, schedule: Q04DX003 (ip), vehicle: clinical formulation) was 193 % of control. For the same molecule, the T/C (dose: 60.0 mg/kg/injection, schedule: Q01DX004 (ip), vehicle: distilled water + Tween-80) was 89 % of control, the T/C (dose: 60.0 mg/kg/injection, schedule: Q04DX003 (ip), vehicle: clinical formulation) was 219 % of control and the T/C (dose: 64.0 mg/kg/injection, schedule: Q04DX003 (ip), vehicle: saline with Tween-80) was 153 % of control and 161 % of control. The T/C (dose: 75.0 mg/kg/injection, schedule: Q04DX003 (ip), vehicle: clinical formulation) was 189 % of control, the T/C (dose: 75.0 mg/kg/injection, schedule: Q04DX003 (ip), vehicle: saline with Tween-80) was 180 % of control and the T/C (dose: 75.0 mg/kg/injection, schedule: Q04DX003 (iv), vehicle: saline with Tween-80) was 106 % of control. The T/C (dose: 90.0 mg/kg/injection, schedule: Q04DX003 (ip), vehicle: clinical formulation) was 219 % of control, the T/C (dose: 100.0 mg/kg/injection, schedule: Q04DX003 (ip), vehicle: clinical formulation) was 242 % of control and the T/C (dose: 128.0 mg/kg/injection, schedule: Q04DX003 (ip), vehicle: saline with Tween-80) was 168 % of control and 180 % of control and 201 % of control. For the same molecule, the T/C (dose: 150.0 mg/kg/injection, schedule: Q04DX003 (ip), vehicle: saline with Tween-80) was 243 % of control and 270 % of control, the T/C (dose: 150.0 mg/kg/injection, schedule: Q04DX003 (iv), vehicle: saline with Tween-80) was 153 % of control and the T/C (dose: 256.0 mg/kg/injection, schedule: Q04DX003 (ip), vehicle: saline with Tween-80) was 173 % of control and 190 % of control and 257 % of control. For the same molecule, the T/C (dose: 300.0 mg/kg/injection, schedule: Q04DX003 (ip), vehicle: clinical formulation) was 87 % of control, the T/C (dose: 300.0 mg/kg/injection, schedule: Q04DX003 (ip), vehicle: saline with Tween-80) was 252 % of control and the T/C (dose: 300.0 mg/kg/injection, schedule: Q04DX003 (iv), vehicle: saline with Tween-80) was 222 % of control. The T/C (dose: 512.0 mg/kg/injection, schedule: Q04DX003 (ip), vehicle: saline with Tween-80) was 117 % of control, the T/C (dose: 600.0 mg/kg/injection, schedule: Q04DX003 (iv), vehicle: saline with Tween-80) was 169 % of control and the T/C (dose: 1024.0 mg/kg/injection, schedule: Q04DX003 (ip), vehicle: saline with Tween-80) was 107 % of control.

`O=C(O)C(c1ccccc1)c1cccc(C(C(=O)O)c2ccccc2)n1` (centres undefined) was tested, and the T/C (dose: 60.0 mg/kg/injection, schedule: Q01DX005 (ip), vehicle: saline with Tween-80) was 105 % of control, the T/C (dose: 120.0 mg/kg/injection, schedule: Q01DX005 (ip), vehicle: saline with Tween-80) was 100 % of control and the T/C (dose: 240.0 mg/kg/injection, schedule: Q01DX005 (ip), vehicle: saline with Tween-80) was 102 % of control.

`NCCCCCCCC(=O)NCCCCCCCC(=O)NCCCCCCCC(=O)NCCCCCCCC(=O)NN` was tested, and the T/C [1] was 100 % of control, the T/C [2] was 100 % of control and the T/C (dose: 200.0 mg/kg/injection, schedule: Q01DX005 (ip), vehicle: saline with Tween-80) was 91 % of control.

`COc1cc2c3cc1Oc1c(OC)c(OC)cc4c1C(Cc1ccc(cc1)Oc1cc(ccc1O)CC3N(C)CC2)N(C)CC4` (centres undefined) was tested, and the T/C (dose: 12.5 mg/kg/injection, schedule: Q01DX009 (ip), vehicle: Klucel (hydroxypropylcellulose) (HPC)) was 97 % of control, the T/C (dose: 25.0 mg/kg/injection, schedule: Q01DX009 (ip), vehicle: Klucel (hydroxypropylcellulose) (HPC)) was 97 % of control and the T/C (dose: 50.0 mg/kg/injection, schedule: Q01DX009 (ip), vehicle: Klucel (hydroxypropylcellulose) (HPC)) was 94 % of control. For the same molecule, the T/C (dose: 100.0 mg/kg/injection, schedule: Q01DX009 (ip), vehicle: Klucel (hydroxypropylcellulose) (HPC)) was 105 % of control.

With `CCOC(=O)C1(C#N)C(c2ccccc2)C(OC)(OC)C1(OC)OC` (centres undefined) the T/C [3] was 100 % of control, the T/C [4] was 102 % of control and the T/C [5] was 99 % of control.

In the case of `CC(C)(C)N(C(=O)OCC1c2ccccc2-c2ccccc21)C(CO)C(=O)O` (centres undefined), the T/C (dose: 50.0 mg/kg/injection, schedule: Q01DX005 (ip), vehicle: Klucel (hydroxypropylcellulose) (HPC)) is reported as 100 % of control and the T/C (dose: 100.0 mg/kg/injection, schedule: Q01DX005 (ip), vehicle: Klucel (hydroxypropylcellulose) (HPC)) is reported as 107 % of control.

With `Nc1cc(=O)[nH]c(=S)[nH]1.[Pd]` the T/C (dose: 12.5 mg/kg/injection, schedule: Q01DX009 (ip), vehicle: distilled water + Tween-80) was 108 % of control, the T/C (dose: 25.0 mg/kg/injection, schedule: Q01DX009 (ip), vehicle: distilled water + Tween-80) was 97 % of control and the T/C (dose: 50.0 mg/kg/injection, schedule: Q01DX009 (ip), vehicle: distilled water + Tween-80) was 100 % of control. The T/C (dose: 100.0 mg/kg/injection, schedule: Q01DX009 (ip), vehicle: distilled water + Tween-80) was 95 % of control and the T/C (dose: 200.0 mg/kg/injection, schedule: Q01DX009 (ip), vehicle: distilled water + Tween-80) was 105 % of control.

With `COc1ccc(N2C(=O)C3C4C=CC(C3C2=O)N(C)C4=O)cc1` (centres undefined) the T/C [6] was 101 % of control, the T/C [7] was 98 % of control and the T/C [8] was 87 % of control.

`Cc1ccc(N=S(C)C)cc1` was tested, and the T/C (dose: 100.0 mg/kg/injection, schedule: Q04DX002 (ip), vehicle: Klucel (hydroxypropylcellulose) (HPC)) was 100 % of control, the T/C (dose: 200.0 mg/kg/injection, schedule: Q04DX002 (ip), vehicle: Klucel (hydroxypropylcellulose) (HPC)) was 101 % of control and the T/C (dose: 400.0 mg/kg/injection, schedule: Q04DX002 (ip), vehicle: Klucel (hydroxypropylcellulose) (HPC)) was 113 % of control.

`CC1=C(C)SC(=C2SC=CS2)S1` was tested, and the T/C [6] was 102 % of control, the T/C [7] was 92 % of control and the T/C [8] was 95 % of control.

`Cc1c2c(cc3c4ccccc4n(C)c13)C(=O)NC2=O` was tested, and the T/C [1] was 91 % of control and the T/C [2] was 90 % of control.

For `CCN(CC)c1cc(=O)n2ccccc2n1`, the T/C [3] was 96 % of control, the T/C [4] was 100 % of control and the T/C [5] was 103 % of control.

For `CC/S(=N\S(=O)(=O)c1ccc(C)cc1)c1ccccc1` (centres undefined), the T/C (dose: 100.0 mg/kg/injection, schedule: Q01DX009 (ip), vehicle: saline with Tween-80) was 100 % of control, the T/C (dose: 200.0 mg/kg/injection, schedule: Q01DX009 (ip), vehicle: saline with Tween-80) was 109 % of control and the T/C (dose: 400.0 mg/kg/injection, schedule: Q01DX009 (ip), vehicle: saline with Tween-80) was 100 % of control.
